According to patent publication US10517889B2, “Modulators of SMAD7 expression” (Ionis Pharmaceuticals, Inc., priority 2017, dated 2019):
Strand notation (5' to 3'): a small letter for the sugar, then the base; units joined by * are phosphorothioate-linked, units joined directly phosphodiester-linked; [ ] holds rarer units or linkages, { } end groups; capitals alone tell only the bases. e = 2'-O-(2-methoxyethyl) (MOE); k = constrained ethyl (cEt); [5mC] = 5-methylcytosine; d = 2'-deoxy (DNA)

Key:
Format in all cases: cell-based
human SMAD7 mRNA [1] = assay: Dose-dependent inhibition of human SMAD7 mRNA expression in Hep3B cells (Example 3, Study 1 and 2); conditions: electroporation; for % inhibition of SMAD7 mRNA expression: approximately 16 hours; for IC50: Study 1 (312.5-20000 nM)
In short: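 Hep3B cells, 20,000 per well, electroporated with antisense oligonucleotide at 0.31, 1.25, 5.00 or 20.00 μM (first series) or 0.74, 2.22, 6.67 or 20.00 μM (second series). After ~16 h, SMAD7 mRNA measured by RT-qPCR (RTS5062), normalised to RIBOGREEN total RNA. Percent inhibition vs untreated cells; IC50 derived.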

human SMAD7 mRNA [2] = assay: Antisense inhibition of human SMAD7 mRNA expression in Hep3B cells by 5-10-5 MOE gapmers, single concentration, electroporation, RT-PCR (Example 1, Study 1 and 2); conditions: 5-10-5 MOE gapmers targeting SEQ ID NO: 1 and 2; for % inhibition of SMAD7 mRNA expression: electroporation, 15,000 nM antisense oligonucleotide (Study 2)
In short: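 Readout is percent SMAD7 mRNA inhibition versus untreated cells, measured by qRT-PCR (RTS5062) and corrected for total RNA by RIBOGREEN. Oligonucleotide, 5,000 nM or 15,000 nM, was delivered by electroporation into Hep3B cells at 20,000 per well. RNA was collected about 24 h later.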

human SMAD7 mRNA [3] = assay: Dose-dependent inhibition of human SMAD7 mRNA expression in Hep3B cells, comparison with ION 28453 (Example 4); conditions: electroporation, approximately 16 hours; for IC50: SMAD7 mRNA
Method: Cells were plated at a density of 20,000 cells per well and transfected using electroporation with 0.25 μM, 0.74 μM, 2.22 μM, 6.67 μM, or 20.00 μM concentrations of antisense oligonucleotide, as specified in the Tables below. After a treatment period of approximately 16 hours, RNA was isolated from the cells and SMAD7 mRNA levels were measured by quantitative real-time PCR. Primer probe set RTS5062 was used to measure human SMAD7 mRNA levels. SMAD7 mRNA levels were adjusted according to total RNA content, as measured by RIBOGREEN®. Results are presented as percent inhibition of SMAD7 mRNa expression, relative to untreated control cells.
The half maximal inhibitory concentration (IC50) of each oligonucleotide is also presented. […] Several newly designed antisense oligonucleotides had greater potency than the previously disclosed lead compound, ION 28453.

human SMAD7 mRNA [4] = assay: Antisense inhibition of human SMAD7 mRNA expression in Hep3B cells by 3-10-3 cEt gapmers, 10,000 nM, electroporation (Example 2); conditions: approximately 24 hours, primer probe set RTS5062, relative to untreated control cells; for % Inhibition: SMAD7 mRNA, Hep3B cells, 10,000 nM antisense oligonucleotide, electroporation
In short: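 qRT-PCR (RTS5062) of SMAD7 mRNA, normalised to RIBOGREEN total RNA, gave percent inhibition relative to untreated controls. Hep3B cells at 20,000 per well received 10,000 nM oligonucleotide by electroporation, with ~24 h treatment.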

[5] = 312.5 nM, Study 1, relative to untreated control cells

Substance	% inhibition of SMAD7 mRNA expression (human SMAD7 mRNA [1]; [5]) [%]	% inhibition of SMAD7 mRNA expression (human SMAD7 mRNA [1]; 1250.0 nM, Study 1) [%]	% inhibition of SMAD7 mRNA expression (human SMAD7 mRNA [1]; 5000.0 nM, Study 1) [%]	% inhibition of SMAD7 mRNA expression (human SMAD7 mRNA [1]; 20000.0 nM, Study 1) [%]	IC50 (human SMAD7 mRNA [1]) [µM]	% inhibition of SMAD7 mRNA expression (human SMAD7 mRNA [2]) [%]	% Inhibition of SMAD7 mRNA (human SMAD7 mRNA [2]; electroporation with 15,000 nM antisense oligonucleotide (Study 2)) [%]	% inhibition of SMAD7 mRNA expression (human SMAD7 mRNA [3]; 0.25 μM) [%]	% inhibition of SMAD7 mRNA expression (human SMAD7 mRNA [3]; 0.74 μM) [%]	% inhibition of SMAD7 mRNA expression (human SMAD7 mRNA [3]; 2.22 μM) [%]	% inhibition of SMAD7 mRNA expression (human SMAD7 mRNA [3]; 6.67 μM) [%]	% inhibition of SMAD7 mRNA expression (human SMAD7 mRNA [3]; 20.00 μM) [%]	IC50 (human SMAD7 mRNA [3]) [µM]	% inhibition of SMAD7 mRNA expression (human SMAD7 mRNA [4]; Hep3B cells, electroporation with 10,000 nM antisense oligonucleotide) [%]	% Inhibition (human SMAD7 mRNA [4]) [%]
771937 (antisense eT*e[5mC]*e[5mC]*eA*eG*dT*dG*d[5mC]*dT*dT*dG*dT*dG*d[5mC]*dA*eT*eG*eT*eG*e[5mC]) [compound 771937]	0	0	4	41	> 20	52									
771944 (antisense eG*eG*eT*eA*eA*dT*dT*dT*dT*d[5mC]*d[5mC]*dT*d[5mC]*dA*dA*e[5mC]*eA*eG*eG*e[5mC]) [compound 771944]	0	34	35	48	> 20	8	50								
799184 (antisense kA*kA*k[5mC]*d[5mC]*dT*dT*dT*dG*dT*dA*dG*dT*dT*kA*kG*kA) [compound 799184]								0	10	18	51	78	6	58	48
800821 (antisense kG*k[5mC]*kT*dA*dA*dA*dT*dT*dT*d[5mC]*d[5mC]*dA*dA*kT*kG*kA) [compound 800821]								14	30	35	58	79	4		56
